Non-standard residues stand in square brackets, D forms with d. Residues, ends and D or L forms follow the SMILES beside them. Primed or numbered codes have the meaning given here. No end group written: not given here. PEG2′ = not defined here
Assays:
[1] = molecular target: T1, hGALR2 (Homo sapiens, UniProt O43603); experiment: SRE luciferase activity in mGqi-hGALR2-SRE Luc expressing cell lines; assay type: cell-based; details: read-out: logEC50 (mean ± SEM) (converted)
T1 construct: expressed in transfected cells
T1 sequence (O43603 1-387): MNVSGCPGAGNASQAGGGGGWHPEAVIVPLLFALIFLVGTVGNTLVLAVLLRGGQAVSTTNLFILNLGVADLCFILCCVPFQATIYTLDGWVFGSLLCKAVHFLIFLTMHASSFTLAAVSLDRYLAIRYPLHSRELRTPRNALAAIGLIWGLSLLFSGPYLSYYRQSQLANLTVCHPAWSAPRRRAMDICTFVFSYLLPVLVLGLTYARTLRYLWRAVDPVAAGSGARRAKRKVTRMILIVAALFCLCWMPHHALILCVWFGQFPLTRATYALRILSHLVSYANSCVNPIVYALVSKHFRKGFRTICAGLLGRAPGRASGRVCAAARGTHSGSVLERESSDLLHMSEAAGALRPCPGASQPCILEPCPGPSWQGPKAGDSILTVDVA
Method: FIG. 11 provides a comparison of the in vitro potency of three different GALR2 agonist peptides with certain amino acid substitutions at the 4th amino acid position. Specifically, the GALR2 agonist peptides were as follows: (1) nWTaNAALYLFGPq-NH2 (D-alanine substitution; triangle), (2) PEG2-NWTeNAALYLFGPq-NH2 (D-glutamic acid; filled circle), and (3) PEG2-NWTrNAALYLFGPq-NH2 (D-arginine; open circle). Potency of the GALR2 agonists was assessed by measuring SRE luciferase activity in mGqi-hGALR2-SRE Luc expressing cell lines treated with the peptides.
In addition to solubility (described above in Example 8), the in vitro potency of the three GALR2 agonist peptides described in Example 7 was next assessed. Specifically, mGqi-hGALR2-SRE Luc expressing cell lines were treated with the different peptides and SRE luciferase activity was measured (as a measure of intracellular activity mediated by the GALR2 agonist peptides).

[2] = tested on: OIC mice; experiment: Colonic transit time (latency to glass bead expulsion) in opioid-induced constipation (OIC) mouse model; assay type: in vivo; details: 10 mg/kg intraperitoneally, single administration at day 7, positive control (FIG. 5)
Method: FIG. 4 provides the overall experimental design in assessing the effects of GALR2 agonists described herein in an opioid-induced constipation (OIC) mouse model. The upward arrows (seven total) represent the daily administration of the GALR2 agonist. The GALR2 agonist that was administered to the relevant groups was pegylated. Control animals received either a vehicle control (negative control) or bisacodyl (positive control). Animals that received a single administration (i.e., at day 7) of naloxone methiodide were also used as a positive control. At 10 minutes post last administration, each of the animals received an administration of morphine (3 mg/kg; subcutaneously). […] Colonic transit time was assessed by measuring the latency to glass bead expulsion by the animals.
FIGS. 9A and 9B show the effect of dosing schedule and administration route on GALR2 agonist-mediated regulation of colonic transit time in OIC mice. […] Colonic transit time was assessed by measuring the latency to glass bead expulsion by the animals. […]
To assess whether the GALR2 agonists described herein could be useful in treating opioid-induced constipation, an OIC mouse model was used. […] Then, a glass bead was rectally inserted, and colonic transit time was assessed by measuring the latency to glass bead expulsion by the animals. […]

[3] = molecular target: T2, human galanin receptor type 2 (GALR2) (human, UniProt O43603 1-387); experiment: cell-based or functional assay
T2 sequence: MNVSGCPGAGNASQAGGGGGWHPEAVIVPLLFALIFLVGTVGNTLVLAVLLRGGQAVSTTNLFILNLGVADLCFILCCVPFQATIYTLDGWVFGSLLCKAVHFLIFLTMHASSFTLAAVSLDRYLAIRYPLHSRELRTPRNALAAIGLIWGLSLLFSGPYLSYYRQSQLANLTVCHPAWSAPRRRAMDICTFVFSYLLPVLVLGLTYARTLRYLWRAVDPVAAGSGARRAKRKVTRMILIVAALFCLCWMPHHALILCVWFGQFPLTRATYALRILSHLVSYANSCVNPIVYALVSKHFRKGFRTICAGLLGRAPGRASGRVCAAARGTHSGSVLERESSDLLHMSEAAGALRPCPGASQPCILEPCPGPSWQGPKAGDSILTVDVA

`CC(C)C[C@H](NC(=O)[C@H](C)NC(=O)[C@H](C)NC(=O)[C@H](CC(N)=O)NC(=O)[C@@H](C)NC(=O)[C@@H](NC(=O)[C@H](Cc1c[nH]c2ccccc12)NC(=O)[C@H](N)CC(N)=O)[C@@H](C)O)C(=O)N[C@@H](Cc1ccc(O)cc1)C(=O)N[C@@H](CC(C)C)C(=O)N[C@@H](Cc1ccccc1)C(=O)NCC(=O)N1CCC[C@H]1C(=O)N[C@H](CCC(N)=O)C(N)=O` [D-Alanine (SEQ ID NO: 87), nWTaNAALYLFGPq-NH2] (HELM PEPTIDE1{[dN].W.T.[dA].N.A.A.L.Y.L.F.G.P.[dQ].[am]}$$$$V2.0) showed an EC50 [1] of 44.7 nM.

In the case of `C=CC[N+]1(C)CC[C@]23c4c5ccc(O)c4O[C@H]2C(=O)CC[C@@]3(O)[C@H]1C5` (stereo partly drawn) [naloxone methiodide, reference compound], the colonic transit time [2] is reported as “decrease in colonic transit time”.

B1: PEG2-NWTrNAALYLFGPq-NH2 ([PEG-dR4-dQ14]-GALR2 Agonist, SEQ ID NO: 89) (peptide)
peptide: [PEG2′]NWT[dR]NAALYLFGP[dQ]-NH2
For B1, the “EC50 fold change against the D-alanine peptide, SRE luciferase activity” value [3] was about 3.5 fold.
